This is an account of results in PubChem BioAssay AID1963969 (Molecular Pharmacology Branch, DTP, NCI, 2024).

The term viability, T/C denotes the ratio of treated to control. Broadly, the IC50 is the concentration that inhibits the measured activity by half.

This experiment concerns 817829-284-R-J1-PDC multi-cell spheroid viability. The experiment can be described thus: Anticancer human tumor 817829-284-R-J1-PDC patient-derived colon adenocarcinoma cell line growth inhibition [PI3K]. The following applies: for viability, T/C: stronger effect = lower value. The source says:
Combinatorial screen of targeted agents with the PI3K inhibitors inavolisib, alpelisib, duvelisib, and copanlisib in multi-cell type tumor spheroids
A high-throughput screen of multi-cell type tumor spheroids was designed to identify active combinations of targeted small molecules and PI3K pathway inhibitors. Complex spheroids include a stromal component modeled by human endothelial cells (HUVEC) and fibroblasts modeled by human mesenchymal stem cells (MSCs). The concentration ranges selected for each drug and investigational agent were based upon clinically achievable concentrations if the clinical Cmax of the agent was known.
Compounds. The drugs and investigational agents: inavolisib (NSC800729), alpelisib (NSC765974), duvelisib (NSC772469), copanlisib (NSC816437), ipatasertib (NSC767898), afuresertib (NSC778305), talazoparib (NSC767125), sapanisertib (NSC764658), selumetinib (NSC741078), tovorafenib (DAY101, NSC766906), vemurafenib (NSC761431), ravoxertinib (NSC781343), sotorasib (NSC818433), MRTX1133 (NSC 836407), abemaciclib (NSC 768073), palbociclib (NSC758247), venetoclax (NSC 766270), SY5609 (NSC837396), enzalutamide (NSC755605), and darolutamide (NSC825331), were obtained from the National Cancer Institute (NCI) Developmental Therapeutics Program Chemical Repository. The FDA-approved anticancer drug set is available from the NCI Developmental Therapeutics Program. […] The stock solutions were prepared in dimethyl sulfoxide (DMSO, Sigma-Aldrich, St. Louis, MO, cat. D2650) at 800-fold the tested concentration and stored at -70 degrees C prior to their use. All drugs and investigational agents were tested over a range starting from a high concentration at or near the clinical Cmax and decreasing in half-log increments. If the clinical Cmax for an agent had not been determined, the highest concentration tested was 10 microM.
Cell Culture. All cells were maintained in an incubator at 37 degrees C and 5% CO2 with 95% humidity. The PDC lines were cultured according to standard operating procedures established by the NCI PDMR (https://pdmr.cancer.gov/sops/default.htm). All PDCs were thawed and cultured in Matrigel-coated flasks prepared with a working solution of 1X Ham's F-12 nutrient mix, without supplementation (Invitrogen, Waltham, MA, cat. 11765054), 100 U/mL penicillin-streptomycin (Invitrogen, cat. 15140122), and 2.5% Matrigel (Corning Inc., Corning, NY, cat. 354248) for the first three passages. The 354836-022-R-J1-PDC, 475296-252-R-J1-PDC, and 997726-040-R-J2-PDC lines were cultured in 6A media, which includes advanced DMEM/F-12 (Thermo Fisher Scientific, cat. 12634028), 10 mM HEPES (Thermo Fisher Scientific, cat. 15630080), 1X GlutaMAX supplement (Thermo Fisher Scientific, cat. 35050061), 0.1 mg/mL primocin (InvivoGen, San Diego, CA, cat. ant-pm-2), 10% defined fetal bovine serum, heat inactivated (HyClone Laboratories Inc., Logan, UT, cat. SH30070.03HI), 50% L-WRN conditioned media (ATCC, cat. CRL-3276), 1.25 mM N-Acetyl-L-cysteine (Sigma-Aldrich, cat. A9165), 10 mM nicotinamide (Sigma-Aldrich, cat. N0636), 1X B-27 supplement (Thermo Fisher Scientific, cat. 17504044), 1X N-2 supplement (Thermo Fisher Scientific, cat. 17502048), and 10 microM Y-27632 dihydrochloride (Tocris Bioscience, Bristol, United Kingdom, cat. 1254). The 624824-186-R-J2-PDC line was cultured in 6C/Colon 1B media, which includes all 6A media components plus 50 ng/mL human EGF recombinant protein (Thermo Fisher Scientific, cat. PHG0311). […]

“And” between values parts separate entries of the source, which are not always exact repeats. Identical values can stand only once.
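Further: spheroids exposed to agents for seven days before readout.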
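Wherever viability, T/C is given: percent of vehicle DMSO control viability which is 100%.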

Take `C#Cc1c(F)ccc2cc(O)cc(-c3ncc4c(N5CC6CCC(C5)N6)nc(OCC56CCCN5CC(F)C6)nc4c3F)c12` (stereo not given): the viability, T/C by setting is: (compound 0.0316 µM) 83.3% and 99%; (compound 0.1 µM) 95.1% and 72.9%; (compound 0.316 µM) 69.9% and 83%; (compound 1 µM) 68.4% and 99.7%; (compound 3.16 µM) 87.7% and 88.6%; (compound 10 µM) 33.2% and 56.2%. The IC50 (curve of compound) was 6.66 µM and > 10 µM.
For `C=CC(=O)N1CCN(c2nc(=O)n(-c3c(C)ccnc3C(C)C)c3nc(-c4c(O)cccc4F)c(F)cc23)C(C)C1` (stereo not given), the viability, T/C was 90.5% and 112% (compound 0.0316 µM); 107% and 70.5% (compound 0.1 µM); 70.2% and 97.6% (compound 0.316 µM); 104% and 120% (compound 1 µM); 85.3% and 104% (compound 3.16 µM); 44.3% and 48.8% (compound 10 µM). Also, the half-inhibitory concentration (IC50) (curve of compound) was 8.66 µM and 9.74 µM.
Consider `CC(=O)c1c(C)c2cnc(Nc3ccc(N4CCNCC4)cn3)nc2n(C2CCCC2)c1=O`, for which the viability, T/C runs as follows: (compound 0.0316 µM) 54.6% [middle of 4 runs]; (compound 0.1 µM) 39.3% [middle of 4 runs].
With `CC(C)NCC(C(=O)N1CCN(c2ncnc3c2C(C)CC3O)CC1)c1ccc(Cl)cc1` (stereo not given), the viability, T/C runs as follows: (compound 0.0316 µM) 74.6% and 90.4%; (compound 0.1 µM) 61.1% and 54.8%; (compound 0.316 µM) 38.5% and 41.4%; (compound 1 µM) 28% and 27.8%; (compound 3.16 µM) 21% and 17.3%; (compound 10 µM) 10.7% and 10.9%. Further, for the setting “curve of compound”, the IC50 was 0.179 µM and 0.168 µM.
In the case of `CC(C)n1nc(-c2ccc3oc(N)nc3c2)c2c(N)ncnc21`, the viability, T/C by setting is: (compound 0.000316 µM) 54.7% and 69.8% and 94.8%; (compound 0.001 µM) 120% and 96.8% and 70%; (compound 0.00316 µM) 68.2% and 77.3% and 63.2%; (compound 0.01 µM) 52.8% and 72.2% and 93.4%; (compound 0.0316 µM) 58.9% and 37.7% and 41.6%; (compound 0.1 µM) 21.2% and 24% and 17.7%. In addition, the half-inhibitory concentration (IC50) (curve of compound) was 0.033 µM and 0.0209 µM and 0.0246 µM.
On to `CC(Cn1ccc(-c2ccc(C#N)c(Cl)c2)n1)NC(=O)c1cc(C(C)O)[nH]n1` (stereo not given), for which the concentration for half-maximal inhibition (IC50) (curve of compound) is above 10 µM.
With `CC(Nc1ccc2c(c1)OCCn1cc(N3C(=O)OCC3C(F)F)nc1-2)C(N)=O` (stereo not given), the viability, T/C (compound 0.00316 µM) was 82.8% [middle of 6 runs]. Where the note is “compound alone, run of 04/24/2023”, the half-inhibitory concentration (IC50) was > 1 µM and 0.28 µM and 1 µM.
`CC(Nc1ncnc2nc[nH]c12)c1cc2cccc(Cl)c2c(=O)n1-c1ccccc1` (stereo not given): the viability, T/C by setting is: (compound 0.0316 µM) 98.7% and 80.4%; (compound 0.1 µM) 78.1% and 107%; (compound 0.316 µM) 98.9% and 104%; (compound 1 µM) 89% and 74.1%; (compound 3.16 µM) 82.9% and 94.8%; (compound 10 µM) 66% and 70.4%. For the same compound, the IC50 (compound alone, run of 04/25/2023) was above 10 µM.
Turning to `CC1(C)CCC(CN2CCN(c3ccc(C(=O)NS(=O)(=O)c4ccc(NCC5CCOCC5)c([N+](=O)[O-])c4)c(Oc4cnc5[nH]ccc5c4)c3)CC2)=C(c2ccc(Cl)cc2)C1`, the viability, T/C is 66.2% and 63.1% and 99.8% (compound 0.0316 µM); 60.4% and 90.3% and 105% (compound 0.1 µM); 60.5% and 85.7% and 66.8% (compound 0.316 µM); 84.6% and 95.4% and 97.1% (compound 1 µM); 98.1% and 98.5% and 56.7% (compound 3.16 µM). Further, the concentration for half-maximal inhibition (IC50) (curve of compound) was > 10 µM and 5.63 µM and 3.67 µM.
Take `CC1(C)CCC(Nc2ncc(C(F)(F)F)c(-c3c[nH]c4c(P(C)(C)=O)c(C#N)ccc34)n2)CN1` (stereo not given): the viability, T/C was 25.3% and 24.7% (compound 0.0316 µM); 25% and 26.2% (compound 0.1 µM); 27.4% and 32.9% (compound 0.316 µM); 30.6% and 31.8% (compound 1 µM); 32.7% and 38.6% (compound 3.16 µM); 0.65% and 1.29% (compound 10 µM). Also, the IC50 (curve of compound) was below 0.0316 µM.
Turning to `CCCS(=O)(=O)Nc1ccc(F)c(C(=O)c2c[nH]c3ncc(-c4ccc(Cl)cc4)cc23)c1F`, the viability, T/C is, setting by setting: (compound 0.0316 µM) 91.8% and 75.6% and 87.7%; (compound 0.1 µM) 75.9% and 81.4% and 57.4%; (compound 0.316 µM) 82.7% and 65.9% and 44.2%; (compound 1 µM) 90% and 62.3% and 54.9%; (compound 3.16 µM) 68% and 89.2% and 50.6%; (compound 10 µM) 7.12% and 5.31% and 3%. For the same compound, the 50% inhibitory concentration (IC50) (curve of compound) was 4.45 µM and 4.78 µM and 1.42 µM.
